In US20110244503A1, “System and Method for Anti-Cancer Drug Candidate Evaluation” (priority 2010, published 2011):

Tests used:
[1] = tested on: ovarian cancer cell line, CAOV-3; test: MiCK-type spectrophotometric apoptosis assay, CAOV-3 cells; format: cell-based; conditions: as Example 1 but with higher drug concentrations, above 3 kinetic units = positive response
Experimental: Cancer cells were obtained from exponentially growing cultures in RPMI 1640 medium without phenol red supplemented with 10% heat-inactivated fetal bovine serum, 100 U/ml penicillin and 100 μg/mL streptomycin (complete medium) in humidified air with 5% CO2 at 37° C. Cells were harvested, washed with pre-warmed medium and resuspended in complete medium. Appropriate cell counts and viability were tested.
Cells from each cell line in complete medium were placed in wells of a 96-well plate at a concentration of 2 to 5×10^5 cells/ml. Various dilutions of the drug candidate, Idarubicin, were added to the wells in 5 μL aliquots. Final concentrations for the drug candidate were 0.01, 0.1, 0.5, 1, 5, 10 and 20 μM. The plates were incubated at 37° C. for 30 minutes in a humidified 5% CO2 atmosphere. After this adjustment period, 30 μl of sterile mineral oil was layered on top of each well. The microtiter plate was placed in an incubated spectrophotometer chamber (37° C.) and OD at 600 nm was measured every 5 minutes for a period of 48 hours. The reader was calibrated to zero absorbance using well containing only complete medium and no cells. All tests were performed in triplicate.
Data acquisition and computation was performed using appropriate software. OD readings were plotted against time to provide a kinetic representation of cell responses to the drugs and drug candidate. Kinetic units were calculated for each test well. A kinetic unit below […] was considered a negative response and above 3 was considered a positive response. A kinetic unit between 1.5 and 3 was considered a marginal response.
A variety of anti-cancer drugs were tested against a single ovarian cancer cell line, CAOV-3, to determine their suitability for use against ovarian cancer. Tests were performed in a manner similar to those in Example 1, but with higher drug concentrations.

[2] = tested on: MOLT-3, an acute T-cell lymphoblastic leukemia; test: MiCK-type spectrophotometric apoptosis assay, MOLT-3 cells; format: cell-based, human; conditions: 0.01-20 μM
Experimental: (§1) Spectrophotometric data may be converted to kinetic units. Kinetic units are determined by the slope of the curve created when the change in the OD at 600 nm caused by cell blebbing is plotted as a function of time. Specific information regarding the calculation of kinetic units is provided in Kravtsov, Vladimir D. et al., Use of the Microculture Kinetic Assay of Apoptosis to Determine Chemosensitivities of Leukemias, Blood 92:968-980 (1998), incorporated by reference herein. Optical density for a given drug candidate at a given concentration may be plotted against time. This plot gives a distinctive increasing curve if the cells are undergoing apoptosis. […] (FIG. 3.) Cell death due to reasons other than apoptosis can also be determined by the current assay and is useful in eliminating false positives from drug candidate screening. […]
(§2) Vmax is the maximum kinetic rate, which is the slope of the steep increase in the OD v. time plot when cells are undergoing apoptosis. […] ODcell is the initial OD of the control containing cells and ODblank is the initial OD of a blank well containing only medium or medium and drug (the drug may be omitted for some drugs, but for colored drugs in particular it may be included in the blank). y is a coefficient dependent on the cell type being assayed and may be determined experimentally through observation of the cell lines. […]

[3] = tested on: RAMOS, a B cell line derived from Burkitt's lymphoma; test: MiCK-type spectrophotometric apoptosis assay, RAMOS cells; format: cell-based, human; conditions: 0.01-20 μM
Experimental: as §1, §2

[4] = tested on: HL60, an acute promyelocytic leukemia cell line; test: MiCK-type spectrophotometric apoptosis assay, HL60 cells; format: cell-based, human; conditions: HL-60 cells
Experimental: as §1, §2

[5] = tested on: JURL-MK2, a chronic myeloid leukemia in blast crisis; test: MiCK-type spectrophotometric apoptosis assay, JURL-MK2 cells; format: cell-based, human; conditions: 0.01-20 μM, OD at 600 nm every 5 minutes for 48 hours, above 3 = positive response
Experimental: as §1, §2

SMILES	response / suitability (in words) [1]	other results
COc1cccc2c1C(=O)c1c(O)c3c(c(O)c1C2=O)C[C@@](O)(C(C)=O)C[C@@H]3O[C@H]1C[C@H](N)[C@H](O)[C@H](C)O1 [Daunorubicin]	positive response at reasonable concentrations	
CC(=O)[C@]1(O)Cc2c(O)c3c(c(O)c2[C@@H](O[C@H]2C[C@H](N)[C@H](O)[C@H](C)O2)C1)C(=O)c1ccccc1C3=O [Idarubicin, 4-demethoxydaunorubicin]	positive response at reasonable concentrations	concentration dependence of kinetic unit readings (in words) [2]: higher kinetic unit readings at lower concentrations; apoptotic response ([2]; OD at 600 nm every 5 minutes for 48 hours, above 3 = positive response): exceeding 3 kinetic units; apoptotic response ([3]; RAMOS cells, OD at 600 nm every 5 minutes for 48 hours, above 3 = positive response): exceeding 3 kinetic units; concentration dependence of response (in words) ([3]; Ramos cells): positive response was seen in the Ramos cell line only at high concentrations; maximal response ([4]; 0.01-20 μM, 48 hours, between 1.5 and 3 = marginal response): 2.3 kinetic units; drug sensitivity (in words) ([4]; threshold 3 kinetic units): only marginal sensitivity; apoptotic response [5]: exceeding 3 kinetic units
CCc1c2c(nc3ccc(OC(=O)N4CCC(N5CCCCC5)CC4)cc13)-c1cc3c(c(=O)n1C2)COC(=O)[C@]3(O)CC [Irinotecan]	need to use high concentrations of the drug to achieve a positive response	
CO[C@@]12[C@H](COC(N)=O)C3=C(C(=O)C(C)=C(N)C3=O)N1C[C@@H]1N[C@@H]12 [Mitomycin]	positive response at reasonable concentrations	
O=C1c2c(O)ccc(O)c2C(=O)c2c(NCCNCCO)ccc(NCCNCCO)c21 [Mitoxantrone]	positive response at reasonable concentrations	
O=C1[O][Pt]2([NH][C@@H]3CCCC[C@H]3[NH]2)[O]C1=O [Oxaliplatin]	not suitable drugs for treating ovarian cancer	
CCC1=C[C@@H]2CN(C1)Cc1c([nH]c3ccccc13)[C@@](C(=O)OC)(c1cc3c(cc1OC)N(C)[C@H]1[C@@](O)(C(=O)OC)[C@H](OC(C)=O)[C@]4(CC)C=CCN5CC[C@]31[C@@H]54)C2 [Vinorelbine]	not suitable drugs for treating ovarian cancer	
